# From publication PMC3647702 (ACS medicinal chemistry letters, 2013)
# What was measured:
# [1] = tested on: 42 Tier 2 clade B and C viruses; conditions: read-out: geometric mean titers (GMT) IC50, sensitive strains; cited from earlier work
# clade C viruses = test: Neutralization of clade C Env pseudoviruses; type: cell-based, HIV-1
# clade B viruses = test: Neutralization of clade B Env pseudoviruses; type: cell-based, HIV-1
# [2] = tested on: HIV-1YU2 virus in CD4 negative Cf2Th-CCR5 cells; conditions: cells lacking the CD4 receptor (CD4–CCR5+ Cf2Th cells); cited from earlier work
# full-length gp120 = full-length gp120 (Human immunodeficiency virus type 1 group M subtype B, UniProt P35961); conditions: gp120 binding; cited from earlier work
compound,measurement,setting,value
N=C(N)N[C@H]1Cc2ccccc2[C@@H]1NC(=O)C(=O)Nc1ccc(Cl)c(F)c1 [(+)-3],IC50,[1],7.9 µM
N=C(N)NC[C@H]1Cc2ccccc2[C@@H]1NC(=O)C(=O)Nc1ccc(Cl)c(F)c1.O=CO [(+)-4],neutralization breadth,clade C viruses,59%
same,improvement over (+)-3 based on IC50 titers,clade B viruses,60%
same,improvement over (+)-3 based on IC80 titers,clade B viruses,1.5 fold
same,neutralization breadth,clade B viruses,100%
N=C(N)N[C@@H]1Cc2ccccc2[C@H]1NC(=O)C(=O)Nc1ccc(Cl)c(F)c1 [(−)-3],IC50,[1],8.9 µM
"CC1(C)CC(NC(=O)C(=O)Nc2ccc(Cl)cc2)CC(C)(C)N1 [Compound 1, NBD-556]",CD4-independent viral entry,[2],agonists of CD4-independent viral entry
same,ΔH,full-length gp120,-24.5 kcal/mol
same,−TΔS,full-length gp120,17.1 kcal/mol
